This data set concerns CCRIS mutagenicity, Ames/micronucleus/aberration tests. Put plainly: CCRIS mutagenicity studies.
Where [1] appears, read: Test System: AMES SALMONELLA TYPHIMURIUM, Strain/Indicator: TA98, Metabolic Activation: NONE, Method: STANDARD PLATE.
The mark [2] stands for this setting: Test System: AMES SALMONELLA TYPHIMURIUM, Strain/Indicator: TA1535, Metabolic Activation: NONE, Method: STANDARD PLATE.
The mark [3] stands for this setting: Test System: AMES SALMONELLA TYPHIMURIUM, Strain/Indicator: TA1537, Metabolic Activation: NONE, Method: STANDARD PLATE.
The mark [4] stands for this setting: Test System: AMES SALMONELLA TYPHIMURIUM, Strain/Indicator: TA1538, Metabolic Activation: NONE, Method: STANDARD PLATE.
The mark [5] stands for this setting: Test System: AMES SALMONELLA TYPHIMURIUM, Strain/Indicator: TA100, Metabolic Activation: NONE, Method: STANDARD PLATE.

Structures are written as SMILES. Active and inactive are the calls of the source. How the calls were made is not given here.

Turning to `COC(=O)[C@H]1O[C@@H]1c1ccccc1`, the mutagenic call is “inactive; negative” under setting [1]; “inactive; negative” (Test System: AMES SALMONELLA TYPHIMURIUM, Strain/Indicator: TA98, Metabolic Activation: RAT, LIVER, S-9, AROCLOR 1254, Method: STANDARD PLATE); “inactive; negative” (Test System: AMES SALMONELLA TYPHIMURIUM, Strain/Indicator: TA100, Metabolic Activation: RAT, LIVER, S-9, AROCLOR 1254, Method: STANDARD PLATE); “inactive; negative” under setting [2]; “inactive; negative” (Test System: AMES SALMONELLA TYPHIMURIUM, Strain/Indicator: TA1535, Metabolic Activation: RAT, LIVER, S-9, AROCLOR 1254, Method: STANDARD PLATE); “inactive; negative” under setting [3]. For the same molecule, the mutagenic call (Test System: AMES SALMONELLA TYPHIMURIUM, Strain/Indicator: TA1537, Metabolic Activation: RAT, LIVER, S-9, AROCLOR 1254, Method: STANDARD PLATE) is “inactive; negative”; the mutagenic call under setting [4] is “inactive; negative”; the mutagenic call (Test System: AMES SALMONELLA TYPHIMURIUM, Strain/Indicator: TA1538, Metabolic Activation: RAT, LIVER, S-9, AROCLOR 1254, Method: STANDARD PLATE) was “inactive; negative”.

Turning to `O=P1(Oc2ccccc2)OCc2ccccc2O1` (centres undefined), the mutagenic call is “active; positive” under setting [5] and “active; positive” (Test System: AMES SALMONELLA TYPHIMURIUM, Strain/Indicator: TA100, Metabolic Activation: RAT, LIVER, MICROSOMES, Method: STANDARD PLATE).

As to `C[C@H]1CCCC(=O)CCCCCc2cc(O)cc(O)c2C(=O)O1`, the mutagenic call was “inactive; negative” under setting [1]; “inactive; negative” (Test System: AMES SALMONELLA TYPHIMURIUM, Strain/Indicator: TA98, Metabolic Activation: RAT, LIVER, S-9, Method: STANDARD PLATE); “inactive; negative” under setting [5]; “inactive; negative” (Test System: AMES SALMONELLA TYPHIMURIUM, Strain/Indicator: TA100, Metabolic Activation: RAT, LIVER, S-9, Method: STANDARD PLATE); “inactive; negative” under setting [2]; “inactive; negative; toxicity at 1000 ug/plate” (Test System: AMES SALMONELLA TYPHIMURIUM, Strain/Indicator: TA1535, Metabolic Activation: RAT, LIVER, S-9, Method: STANDARD PLATE). Further, the mutagenic call reads like this: under setting [3], “inactive; negative”; (Test System: AMES SALMONELLA TYPHIMURIUM, Strain/Indicator: TA1537, Metabolic Activation: RAT, LIVER, S-9, Method: STANDARD PLATE) “inactive; negative”; under setting [4], “inactive; negative”; (Test System: AMES SALMONELLA TYPHIMURIUM, Strain/Indicator: TA1538, Metabolic Activation: RAT, LIVER, S-9, Method: STANDARD PLATE) “inactive; negative”.

As for `Nc1ccc(I)cc1`, where the note is “End Point: IN VITRO MICRONUCLEUS, Test System: CHL/IU CELLS, Metabolic Activation: RAT, LIVER, S-9, PHENOBARBITAL AND 5,6-BENZOFLAVONE”, the mutagenic call is “inactive; negative”.

Consider `CC(=O)OC(C)CN(CC(C)OC(C)=O)N=O` (centres undefined), for which the mutagenic call runs as follows: (Test System: AMES SALMONELLA TYPHIMURIUM, Strain/Indicator: TA100, Metabolic Activation: HAMSTER, LIVER, S-9, 3-METHYLCHOLANTHRENE, Method: PREINCUBATION) “active; positive”; (Test System: AMES SALMONELLA TYPHIMURIUM, Strain/Indicator: TA100, Metabolic Activation: HAMSTER, LIVER, S-9, PHENOBARBITAL, Method: PREINCUBATION) “active; positive”; (Test System: AMES SALMONELLA TYPHIMURIUM, Strain/Indicator: TA100, Metabolic Activation: HAMSTER, LIVER, S-9, Method: PREINCUBATION) “active; positive”; (Test System: AMES SALMONELLA TYPHIMURIUM, Strain/Indicator: TA100, Metabolic Activation: HUMAN, LIVER, S-9, Method: PREINCUBATION) “inactive; negative”; (Test System: AMES SALMONELLA TYPHIMURIUM, Strain/Indicator: TA100, Metabolic Activation: MONKEY, LIVER, S-9, Method: PREINCUBATION) “active; positive”; (Test System: AMES SALMONELLA TYPHIMURIUM, Strain/Indicator: TA100, Metabolic Activation: MOUSE, LIVER, S-9, 3-METHYLCHOLANTHRENE, Method: PREINCUBATION) “active; positive”. Besides, the mutagenic call (Test System: AMES SALMONELLA TYPHIMURIUM, Strain/Indicator: TA100, Metabolic Activation: MOUSE, LIVER, S-9, PHENOBARBITAL, Method: PREINCUBATION) was “active; positive”; the mutagenic call (Test System: AMES SALMONELLA TYPHIMURIUM, Strain/Indicator: TA100, Metabolic Activation: MOUSE, LIVER, S-9, Method: PREINCUBATION) is “active; positive”; the mutagenic call (Test System: AMES SALMONELLA TYPHIMURIUM, Strain/Indicator: TA100, Metabolic Activation: NONE, Method: PREINCUBATION) is “inactive; negative”; the mutagenic call (Test System: AMES SALMONELLA TYPHIMURIUM, Strain/Indicator: TA100, Metabolic Activation: RABBIT, LIVER, S-9, Method: PREINCUBATION) was “active; positive”; the mutagenic call (Test System: AMES SALMONELLA TYPHIMURIUM, Strain/Indicator: TA100, Metabolic Activation: RAT, LIVER, CYTOSOL, PCB, Method: PREINCUBATION) was “inactive; negative”; the mutagenic call (Test System: AMES SALMONELLA TYPHIMURIUM, Strain/Indicator: TA100, Metabolic Activation: RAT, LIVER, MICROSOMES AND CYTOSOL, PCB, Method: PREINCUBATION) is “active; positive”. For the same molecule, the mutagenic call is “active; positive” (Test System: AMES SALMONELLA TYPHIMURIUM, Strain/Indicator: TA100, Metabolic Activation: RAT, LIVER, MICROSOMES AND G6PDH, PCB, Method: PREINCUBATION); “active; positive” (Test System: AMES SALMONELLA TYPHIMURIUM, Strain/Indicator: TA100, Metabolic Activation: RAT, LIVER, MICROSOMES, PCB, Method: PREINCUBATION); “inactive; negative” (Test System: AMES SALMONELLA TYPHIMURIUM, Strain/Indicator: TA100, Metabolic Activation: RAT, LIVER, S-9 (HEATED), PCB, Method: PREINCUBATION); “active; positive” (Test System: AMES SALMONELLA TYPHIMURIUM, Strain/Indicator: TA100, Metabolic Activation: RAT, LIVER, S-9, 3-METHYLCHOLANTHRENE, Method: PREINCUBATION); “active; positive” (Test System: AMES SALMONELLA TYPHIMURIUM, Strain/Indicator: TA100, Metabolic Activation: RAT, LIVER, S-9, PCB, Method: PREINCUBATION); “active; positive” (Test System: AMES SALMONELLA TYPHIMURIUM, Strain/Indicator: TA100, Metabolic Activation: RAT, LIVER, S-9, PHENOBARBITAL, Method: PREINCUBATION). In addition, the mutagenic call was “active; positive” (Test System: AMES SALMONELLA TYPHIMURIUM, Strain/Indicator: TA100, Metabolic Activation: RAT, LIVER, S-9, Method: PREINCUBATION); “inactive; negative” (Test System: AMES SALMONELLA TYPHIMURIUM, Strain/Indicator: TA100, Metabolic Activation: RAT, LIVER, S-9 WITHOUT NADP+, PCB, Method: PREINCUBATION); “active; positive” (Test System: AMES SALMONELLA TYPHIMURIUM, Strain/Indicator: TA100, Method: PREINCUBATION); “active; positive” (Test System: CHINESE HAMSTER V-79, Strain/Indicator: V-79/OUABAIN, Metabolic Activation: HAMSTER, HEPATOCYTES, Method: CELL-MEDIATED).

Source of the values: PubChem BioAssay AID1259407 (Chemical Carcinogenesis Research Information System (CCRIS), 2018).
